Experimental data from PubChem BioAssay AID1259407 (Chemical Carcinogenesis Research Information System (CCRIS), 2018).
Activity calls are given as the source filed them. No rule for the calls is given here.

System: CCRIS mutagenicity, Ames/micronucleus/aberration tests
Experiment: CCRIS mutagenicity studies
[1] = Test System: AMES SALMONELLA TYPHIMURIUM, Strain/Indicator: TA97, Metabolic Activation: NONE, Method: PREINCUBATION
[2] = Test System: AMES SALMONELLA TYPHIMURIUM, Strain/Indicator: TA98, Metabolic Activation: NONE, Method: PREINCUBATION
[3] = Test System: AMES SALMONELLA TYPHIMURIUM, Strain/Indicator: TA100, Metabolic Activation: NONE, Method: PREINCUBATION
[4] = Test System: AMES SALMONELLA TYPHIMURIUM, Strain/Indicator: TA1535, Metabolic Activation: NONE, Method: PREINCUBATION
[5] = Test System: AMES SALMONELLA TYPHIMURIUM, Strain/Indicator: TA1537, Metabolic Activation: NONE, Method: PREINCUBATION
[6] = Test System: AMES SALMONELLA TYPHIMURIUM, Strain/Indicator: TA98, Metabolic Activation: NONE, Method: STANDARD PLATE

Structure (SMILES): CCCCCCCCC1CO1 (configuration not stated)
- mutagenic call (Test System: AMES SALMONELLA TYPHIMURIUM, Strain/Indicator: TA97, Metabolic Activation: HAMSTER, LIVER, S-9, AROCLOR 1254 (10% & 30%), Method: PREINCUBATION): inactive; negative
- mutagenic call [1]: inactive; negative
- mutagenic call (Test System: AMES SALMONELLA TYPHIMURIUM, Strain/Indicator: TA97, Metabolic Activation: RAT, LIVER, S-9, AROCLOR 1254 (10% & 30%), Method: PREINCUBATION): inactive; negative
- mutagenic call (Test System: AMES SALMONELLA TYPHIMURIUM, Strain/Indicator: TA98, Metabolic Activation: HAMSTER, LIVER, S-9, AROCLOR 1254 (10% & 30%), Method: PREINCUBATION): inactive; negative
- mutagenic call [2]: inactive; negative
- mutagenic call (Test System: AMES SALMONELLA TYPHIMURIUM, Strain/Indicator: TA98, Metabolic Activation: RAT, LIVER, S-9, AROCLOR 1254 (10% & 30%), Method: PREINCUBATION): inactive; negative
- mutagenic call (Test System: AMES SALMONELLA TYPHIMURIUM, Strain/Indicator: TA100, Metabolic Activation: HAMSTER, LIVER, S-9, AROCLOR 1254 (10% & 30%), Method: PREINCUBATION): inactive; negative
- mutagenic call [3]: inactive; negative
- mutagenic call (Test System: AMES SALMONELLA TYPHIMURIUM, Strain/Indicator: TA100, Metabolic Activation: RAT, LIVER, S-9, AROCLOR 1254 (10% & 30%), Method: PREINCUBATION): inactive; negative
- mutagenic call (Test System: AMES SALMONELLA TYPHIMURIUM, Strain/Indicator: TA1535, Metabolic Activation: HAMSTER, LIVER, S-9, AROCLOR 1254 (10% & 30%), Method: PREINCUBATION): inactive; negative
- mutagenic call [4]: inactive; negative
- mutagenic call (Test System: AMES SALMONELLA TYPHIMURIUM, Strain/Indicator: TA1535, Metabolic Activation: RAT, LIVER, S-9, AROCLOR 1254 (10% & 30%), Method: PREINCUBATION): inactive; negative
- mutagenic call (Test System: AMES SALMONELLA TYPHIMURIUM, Strain/Indicator: TA1537, Metabolic Activation: HAMSTER, LIVER, S-9, AROCLOR 1254 (10% & 30%), Method: PREINCUBATION): inactive; negative
- mutagenic call [5]: inactive; negative
- mutagenic call (Test System: AMES SALMONELLA TYPHIMURIUM, Strain/Indicator: TA1537, Metabolic Activation: RAT, LIVER, S-9, AROCLOR 1254 (10% & 30%), Method: PREINCUBATION): inactive; negative
- mutagenic call (Test System: UDS RAT HEPATOCYTES, Strain/Indicator: THY INCORP, Metabolic Activation: NONE): inactive; negative

Structure (SMILES): ClCc1cc2c3c(cccc3c1)-c1ccccc1-2
- mutagenic call [6]: active; positive
- mutagenic call (Test System: AMES SALMONELLA TYPHIMURIUM, Strain/Indicator: TA100, Metabolic Activation: NONE, Method: STANDARD PLATE): active; positive

Structure (SMILES): CCCCOCCOP(=O)(OCCOCCCC)OCCOCCCC
- mutagenic call (Test System: AMES SALMONELLA TYPHIMURIUM, Strain/Indicator: TA98, Metabolic Activation: HAMSTER, LIVER, S-9, AROCLOR 1254, Method: PREINCUBATION): inactive; negative
- mutagenic call [2]: inactive; negative
- mutagenic call (Test System: AMES SALMONELLA TYPHIMURIUM, Strain/Indicator: TA98, Metabolic Activation: RAT, LIVER, S-9, AROCLOR 1254, Method: PREINCUBATION): inactive; negative
- mutagenic call (Test System: AMES SALMONELLA TYPHIMURIUM, Strain/Indicator: TA100, Metabolic Activation: HAMSTER, LIVER, S-9, AROCLOR 1254, Method: PREINCUBATION): inactive; negative
- mutagenic call [3]: inactive; negative
- mutagenic call (Test System: AMES SALMONELLA TYPHIMURIUM, Strain/Indicator: TA100, Metabolic Activation: RAT, LIVER, S-9, AROCLOR 1254, Method: PREINCUBATION): inactive; negative
- mutagenic call (Test System: AMES SALMONELLA TYPHIMURIUM, Strain/Indicator: TA1535, Metabolic Activation: HAMSTER, LIVER, S-9, AROCLOR 1254, Method: PREINCUBATION): inactive; negative
- mutagenic call [4]: inactive; negative
- mutagenic call (Test System: AMES SALMONELLA TYPHIMURIUM, Strain/Indicator: TA1535, Metabolic Activation: RAT, LIVER, S-9, AROCLOR 1254, Method: PREINCUBATION): inactive; negative
- mutagenic call (Test System: AMES SALMONELLA TYPHIMURIUM, Strain/Indicator: TA1537, Metabolic Activation: HAMSTER, LIVER, S-9, AROCLOR 1254, Method: PREINCUBATION): inactive; negative
- mutagenic call [5]: inactive; negative
- mutagenic call (Test System: AMES SALMONELLA TYPHIMURIUM, Strain/Indicator: TA1537, Metabolic Activation: RAT, LIVER, S-9, AROCLOR 1254, Method: PREINCUBATION): inactive; negative

Structure (SMILES): O=[N+]([O-])CCO
- mutagenic call (Test System: AMES SALMONELLA TYPHIMURIUM, Strain/Indicator: TA97, Metabolic Activation: HAMSTER, LIVER, S-9, AROCLOR 1254 (5 OR 30%), Method: PREINCUBATION): inactive; negative
- mutagenic call (Test System: AMES SALMONELLA TYPHIMURIUM, Strain/Indicator: TA97, Metabolic Activation: HAMSTER, LIVER, S-9, AROCLOR 1254 (10%), Method: PREINCUBATION): inactive; negative
- mutagenic call [1]: inactive; negative
- mutagenic call (Test System: AMES SALMONELLA TYPHIMURIUM, Strain/Indicator: TA97, Metabolic Activation: RAT, LIVER, S-9, AROCLOR 1254 (5 OR 30%), Method: PREINCUBATION): inactive; negative
- mutagenic call (Test System: AMES SALMONELLA TYPHIMURIUM, Strain/Indicator: TA97, Metabolic Activation: RAT, LIVER, S-9, AROCLOR 1254 (10%), Method: PREINCUBATION): inactive; negative
- mutagenic call (Test System: AMES SALMONELLA TYPHIMURIUM, Strain/Indicator: TA98, Metabolic Activation: HAMSTER, LIVER, S-9, AROCLOR 1254 (10%), Method: PREINCUBATION): inactive; negative
- mutagenic call (Test System: AMES SALMONELLA TYPHIMURIUM, Strain/Indicator: TA98, Metabolic Activation: RAT, LIVER, S-9, AROCLOR 1254 (10%), Method: PREINCUBATION): inactive; negative
- mutagenic call (Test System: AMES SALMONELLA TYPHIMURIUM, Strain/Indicator: TA100, Metabolic Activation: HAMSTER, LIVER, S-9, AROCLOR 1254 (10%), Method: PREINCUBATION): inactive; negative
- mutagenic call (Test System: AMES SALMONELLA TYPHIMURIUM, Strain/Indicator: TA100, Metabolic Activation: HAMSTER, LIVER, S-9, AROCLOR 1254 (30%), Method: PREINCUBATION): inactive; negative
- mutagenic call [3]: inactive; negative
- mutagenic call (Test System: AMES SALMONELLA TYPHIMURIUM, Strain/Indicator: TA100, Metabolic Activation: RAT, LIVER, S-9, AROCLOR 1254 (10%), Method: PREINCUBATION): inactive; negative
- mutagenic call (Test System: AMES SALMONELLA TYPHIMURIUM, Strain/Indicator: TA100, Metabolic Activation: RAT, LIVER, S-9, AROCLOR 1254 (30%), Method: PREINCUBATION): inactive; negative
- mutagenic call (Test System: AMES SALMONELLA TYPHIMURIUM, Strain/Indicator: TA1535, Metabolic Activation: HAMSTER, LIVER, S-9, AROCLOR 1254 (10%), Method: PREINCUBATION): inactive; negative
- mutagenic call (Test System: AMES SALMONELLA TYPHIMURIUM, Strain/Indicator: TA1535, Metabolic Activation: HAMSTER, LIVER, S-9, AROCLOR 1254 (30%), Method: PREINCUBATION): inactive; negative
- mutagenic call [4]: inactive; negative
- mutagenic call (Test System: AMES SALMONELLA TYPHIMURIUM, Strain/Indicator: TA1535, Metabolic Activation: RAT, LIVER, S-9, AROCLOR 1254 (10%), Method: PREINCUBATION): inactive; negative
- mutagenic call (Test System: AMES SALMONELLA TYPHIMURIUM, Strain/Indicator: TA1535, Metabolic Activation: RAT, LIVER, S-9, AROCLOR 1254 (30%), Method: PREINCUBATION): inactive; negative
- mutagenic call (Test System: AMES SALMONELLA TYPHIMURIUM, Strain/Indicator: TA1537, Metabolic Activation: HAMSTER, LIVER, S-9, AROCLOR 1254 (10%), Method: PREINCUBATION): inactive; negative
- mutagenic call [5]: inactive; negative
- mutagenic call (Test System: AMES SALMONELLA TYPHIMURIUM, Strain/Indicator: TA1537, Metabolic Activation: RAT, LIVER, S-9, AROCLOR 1254 (10%), Method: PREINCUBATION): inactive; negative
- mutagenic call (Test System: AMES SALMONELLA TYPHIMURIUM, Strain/Indicator: TA1538, Metabolic Activation: HAMSTER, LIVER, S-9, AROCLOR 1254 (30%), Method: PREINCUBATION): active; positive
- mutagenic call (Test System: AMES SALMONELLA TYPHIMURIUM, Strain/Indicator: TA1538, Metabolic Activation: NONE, Method: PREINCUBATION): active; positive
- mutagenic call (Test System: AMES SALMONELLA TYPHIMURIUM, Strain/Indicator: TA1538, Metabolic Activation: RAT, LIVER, S-9, AROCLOR 1254 (30%), Method: PREINCUBATION): active; positive

Structure (SMILES): Cn1c(N)nc2c3ccc(=O)[nH]c3ccc21
- mutagenic call [2]: active; positive
- mutagenic call [6]: active; positive
- mutagenic call (Test System: AMES SALMONELLA TYPHIMURIUM, Strain/Indicator: TA98, Metabolic Activation: RAT, LIVER, S-9, AROCLOR 1254 (0.5-3 MG/ML), Method: PREINCUBATION): active; positive
- mutagenic call (Test System: AMES SALMONELLA TYPHIMURIUM, Strain/Indicator: TA98, Metabolic Activation: RAT, LIVER, S-9, AROCLOR 1254, Method: STANDARD PLATE): active; positive
